In US8148391B2 (Cephalon, Inc., priority 2006, dated 2012):
Where two headings read alike, the source gives them in different places.

Tests used:
[1] = biological target: T1, c-Met (cytoplasmic domain) (Homo sapiens, UniProt P08581); test: c-Met Kinase Assay (same methods as for ALK, with modifications); type: biochemical
T1 construct: 10 ng/mL c-Met (cytoplasmic domain, Invitrogen Corporation #PV3143); purchased Invitrogen Corporation PV3143
Procedure, shortened: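 Europium-labeled PT66 antibody (Eu-N1) detects substrate phosphorylation on wells coated with phospholipase C-γ at 10 μg/mL. The kinase, the cytoplasmic domain of c-Met at 10 ng/mL, starts the reaction, which proceeds 15 minutes at 37° C.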

[2] = biological target: T2, baculovirus-expressed ALK (Homo sapiens, UniProt Q9UM73); test: ALK Kinase Assay (ELISA-type, time-resolved fluorescence); type: biochemical
T2 construct: host or cells: baculovirus expression system
T2 sequence (Q9UM73 19-1620): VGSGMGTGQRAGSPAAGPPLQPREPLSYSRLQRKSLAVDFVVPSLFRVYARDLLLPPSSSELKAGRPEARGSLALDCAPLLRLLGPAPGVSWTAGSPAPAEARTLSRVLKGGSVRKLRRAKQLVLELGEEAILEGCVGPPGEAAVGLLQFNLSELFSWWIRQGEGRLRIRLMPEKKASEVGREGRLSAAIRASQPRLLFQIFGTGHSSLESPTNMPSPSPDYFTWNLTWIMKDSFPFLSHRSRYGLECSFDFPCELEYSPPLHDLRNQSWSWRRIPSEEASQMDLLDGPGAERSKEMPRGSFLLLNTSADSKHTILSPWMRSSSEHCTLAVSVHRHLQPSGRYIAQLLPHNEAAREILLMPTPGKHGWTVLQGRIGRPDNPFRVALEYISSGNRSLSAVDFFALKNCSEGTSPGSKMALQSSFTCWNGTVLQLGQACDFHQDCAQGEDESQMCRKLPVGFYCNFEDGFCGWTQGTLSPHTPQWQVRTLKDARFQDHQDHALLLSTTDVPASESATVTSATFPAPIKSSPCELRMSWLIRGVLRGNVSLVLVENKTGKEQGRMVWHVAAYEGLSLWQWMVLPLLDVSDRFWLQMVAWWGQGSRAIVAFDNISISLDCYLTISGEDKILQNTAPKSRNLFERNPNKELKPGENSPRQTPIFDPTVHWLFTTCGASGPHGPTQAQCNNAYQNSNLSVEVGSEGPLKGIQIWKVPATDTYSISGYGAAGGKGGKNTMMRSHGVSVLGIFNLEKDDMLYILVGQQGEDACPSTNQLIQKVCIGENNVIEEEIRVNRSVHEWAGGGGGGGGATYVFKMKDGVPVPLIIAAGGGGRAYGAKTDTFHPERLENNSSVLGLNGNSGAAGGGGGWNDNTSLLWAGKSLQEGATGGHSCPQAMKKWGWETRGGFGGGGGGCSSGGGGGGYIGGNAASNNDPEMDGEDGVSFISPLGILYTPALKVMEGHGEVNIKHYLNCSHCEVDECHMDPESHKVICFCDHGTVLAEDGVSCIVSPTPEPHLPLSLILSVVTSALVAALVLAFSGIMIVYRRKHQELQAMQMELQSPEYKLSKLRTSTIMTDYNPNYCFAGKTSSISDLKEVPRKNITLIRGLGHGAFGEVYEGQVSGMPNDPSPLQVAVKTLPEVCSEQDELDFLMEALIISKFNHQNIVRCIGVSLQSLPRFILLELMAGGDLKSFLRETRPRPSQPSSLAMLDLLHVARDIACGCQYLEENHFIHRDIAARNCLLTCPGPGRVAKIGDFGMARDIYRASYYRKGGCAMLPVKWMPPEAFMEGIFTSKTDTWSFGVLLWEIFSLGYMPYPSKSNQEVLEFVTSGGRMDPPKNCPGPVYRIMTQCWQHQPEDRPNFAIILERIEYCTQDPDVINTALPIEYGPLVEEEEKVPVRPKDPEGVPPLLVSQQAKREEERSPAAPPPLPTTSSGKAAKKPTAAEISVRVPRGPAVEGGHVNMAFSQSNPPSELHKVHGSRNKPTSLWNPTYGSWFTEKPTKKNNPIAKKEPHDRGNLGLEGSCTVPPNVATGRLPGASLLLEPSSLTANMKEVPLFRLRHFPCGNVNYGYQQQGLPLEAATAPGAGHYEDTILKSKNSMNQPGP
Procedure, shortened: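 Plates coated with phospholipase C-γ substrate (10 μg/mL in TBS); reaction started with 30 ng/ml ALK and run 15 min at 37° C. Phosphorylated substrate detected with Eu-N1-labeled PT66 antibody. IC50 from sigmoidal variable-slope fit of percent inhibition vs log concentration.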

[3] = c-Met kinase inhibition, 1 μM ATP (Km level), read-out: cMet Activity
[4] = ALK kinase inhibition, 1 μM ATP (Km level), read-out: ALK Activity
[5] = c-Met kinase inhibition, 1 μM ATP, read-out: cMet Activity
[6] = ALK kinase inhibition, 1 μM ATP, read-out: ALK Activity
[7] = 1 μM ATP (Km level), read-out: cMet Activity (c-Met Kinase Inhibition, IC50)
[8] = 1 μM ATP (Km level), read-out: ALK Activity (ALK Kinase Inhibition, IC50)
[9] = 1 μM ATP (Km level), 10 ng/mL c-Met, read-out: cMet Activity (c-Met kinase inhibition, IC50 class)
[10] = 1 μM ATP (Km level), 30 ng/ml ALK, 37° C., 15 minutes, read-out: ALK Activity (ALK kinase inhibition, IC50 class)

T1 sequence (P08581 956-1390 limits assumed): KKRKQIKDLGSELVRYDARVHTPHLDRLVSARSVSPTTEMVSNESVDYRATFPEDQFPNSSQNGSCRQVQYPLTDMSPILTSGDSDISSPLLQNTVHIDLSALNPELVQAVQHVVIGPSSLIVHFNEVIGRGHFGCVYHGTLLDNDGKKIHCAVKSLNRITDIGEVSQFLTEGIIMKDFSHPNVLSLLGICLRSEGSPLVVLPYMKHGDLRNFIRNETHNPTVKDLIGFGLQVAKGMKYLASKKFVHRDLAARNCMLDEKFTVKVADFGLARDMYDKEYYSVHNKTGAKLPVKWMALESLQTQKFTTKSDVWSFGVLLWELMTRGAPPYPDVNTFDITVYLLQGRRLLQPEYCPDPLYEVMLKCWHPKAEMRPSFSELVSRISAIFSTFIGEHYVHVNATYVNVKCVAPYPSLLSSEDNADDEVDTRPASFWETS

| Compound | IC50 [1, 3] [nM] | IC50 [2, 4] [nM] | IC50 [1, 9] [nM] | IC50 [2, 10] [nM] | also measured |
| --- | --- | --- | --- | --- | --- |
| C#CCN1CCc2ccc(Nc3ncc(Cl)c(Nc4ccccc4NS(C)(=O)=O)n3)cc2CC1 [Example 326, N-{2-[5-Chloro-2-(3-prop-2-ynyl-2,3,4,5-tetrahydro-1H-benzo[d]azepin-7-ylamino)-pyrimidin-4-ylamino]-phenyl}-methanesulfonamide] | 100 to 1000 | < 100 | – | – | – |
| CC(=O)NCc1ccccc1Nc1nc(Nc2ccc3c(c2)CCOC(=O)N3C)ncc1Cl [Example 1793, N-{2-[5-Chloro-2-(5-methyl-6-oxo-5,6,8,9-tetrahydro-7-oxa-5-aza-benzocyclohepten-2-ylamino)-pyrimidin-4-ylamino]-benzyl}-acetamide] | – | – | – | – | IC50 [1, 5]: 1000 to 10000 nM; IC50 [2, 6]: 100 to 1000 nM |
| COc1cc2c(cc1Nc1ncc(Cl)c(N[C@H]3[C@@H](C(N)=O)[C@@H]4C=C[C@H]3C4)n1)NC(=O)CN(CC1CC1)C2 [Example 1667, (1S,2S,3R,4R)-3-[5-Chloro-2-(4-cyclopropylmethyl-7-methoxy-2-oxo-2,3,4,5-tetrahydro-1H-benzo[e][1,4]diazepin-8-ylamino)-pyrimidin-4-ylamino]-bicyclo[2.2.1]hept-5-ene-2-carboxylic acid amide] | – | – | – | – | IC50 [1, 5]: > 10000 nM; IC50 [2, 6]: < 100 nM |
| CNC(=O)c1cccc(Nc2nc(Nc3ccc4c(c3)CCCC(=O)N4C)ncc2Cl)c1 [Example 668, 3-[5-Chloro-2-(1-methyl-2-oxo-2,3,4,5-tetrahydro-1H-benzo[b]azepin-7-ylamino)-pyrimidin-4-ylamino]-N-methyl-benzamide] | – | – | – | – | IC50 [1, 7]: 1000 to 10000 nM; IC50 [2, 8]: 100 to 1000 nM |
| COc1cc(N2CCOCC2)ccc1Nc1nc(Nc2ccc3c(c2)CCC(F)(F)CC3)ncc1Cl [Example 182, 5-Chloro-N*2*-(7,7-difluoro-6,7,8,9-tetrahydro-5H-benzocyclohepten-2-yl)-N*4*-(2-methoxy-4-morpholin-4-yl-phenyl)-pyrimidine-2,4-diamine] | > 10000 | 100 to 1000 | – | – | – |
| CNC(=O)c1ccccc1Nc1nc(Nc2ccc3c(c2)CCCCN3C)ncc1Cl [Example 103, 2-[5-Chloro-2-(1-methyl-2,3,4,5-tetrahydro-1H-benzo[b]azepin-7-ylamino)-pyrimidin-4-ylamino]-N-methyl-benzamide] | < 100 | < 100 | – | – | – |
| CNC(=O)CN1CCc2cc(Nc3ncc(F)c(Nc4ccc(N5CCN(C)CC5)cc4OC)n3)c(OC)cc2CC1 [Example 797, 2-(7-{5-Fluoro-4-[2-methoxy-4-(4-methyl-piperazin-1-yl)-phenylamino]-pyrimidin-2-ylamino}-8-methoxy-1,2,4,5-tetrahydro-benzo[d]azepin-3-yl)-N-methyl-acetamide] | – | – | – | – | IC50 [1, 7]: > 10000 nM; IC50 [2, 8]: < 100 nM |
| CCN1C(=O)CCCc2cc(Nc3ncc(Cl)c(N[C@@H]4[C@H]5CC[C@H](C5)[C@@H]4C(N)=O)n3)c(OC)cc21 (relative stereo) [Example 136, (2-exo,3-exo)-3-[5-Chloro-2-(1-ethyl-8-methoxy-2-oxo-2,3,4,5-tetrahydro-1H-benzo[b]azepin-7-ylamino)-pyrimidin-4-ylamino]-bicyclo[2.2.1]heptane-2-carboxylic acid amide] | > 10000 | < 100 | – | – | – |
| CCOCn1ccnc1-c1ccccc1Nc1nc(Nc2ccc3c(c2)CCN(CCOC)CC3)ncc1Cl [Example 222, 5-Chloro-N*4*-[2-(1-ethoxymethyl-1H-imidazol-2-yl)-phenyl]-N*2*-[3-(2-methoxy-ethyl)-2,3,4,5-tetrahydro-1H-benzo[d]azepin-7-yl]-pyrimidine-2,4-diamine] | 1000 to 10000 | < 100 | – | – | – |
| COc1cc2c(cc1Nc1ncc(C(F)(F)F)c(Nc3ccc(N4CCOCC4)cc3OC)n1)CCOC(=O)N2C [Example 1514, 3-Methoxy-2-[4-(2-methoxy-4-morpholin-4-yl-phenylamino)-5-trifluoromethyl-pyrimidin-2-ylamino]-5-methyl-8,9-dihydro-5H-7-oxa-5-aza-benzocyclohepten-6-one] | – | – | – | – | IC50 [1, 5]: > 10000 nM; IC50 [2, 6]: < 100 nM |
| CCN1CCc2ccc(Nc3ncc(C#N)c(Nc4ccccc4C(=O)NC)n3)cc2CC1 [Example 194, 2-[2-(3-Ethyl-2,3,4,5-tetrahydro-1H-benzo[d]azepin-7-ylamino)-5-cyano-pyrimidin-4-ylamino]-N-methyl-benzamide] | 100 to 1000 | < 100 | – | – | – |
| COc1c(Nc2ncc(Cl)c(Nc3ccccc3S(=O)(=O)N(C)C)n2)ccc2c1CCC(N1CCCC(O)C1)CC2 (mixture of isomers) [Example 907, 2-{5-Chloro-2-[7-(3-hydroxy-piperidin-1-yl)-1-methoxy-6,7,8,9-tetrahydro-5H-benzocyclohepten-2-ylamino]-pyrimidin-4-ylamino}-N,N-dimethyl-benzenesulfonamide] | – | – | – | – | IC50 [1, 7]: > 10000 nM; IC50 [2, 8]: < 100 nM |
| COc1cc2c(cc1Nc1ncc(Cl)c(Nc3ccccc3S(=O)(=O)N(C)C)n1)CCC(NCCO)CC2 (stereo not shown) [Example 1089, 2-{5-Chloro-2-[7-(2-hydroxy-ethylamino)-3-methoxy-6,7,8,9-tetrahydro-5H-benzocyclohepten-2-ylamino]-pyrimidin-4-ylamino}-N,N-dimethyl-benzenesulfonamide] | – | – | 1000 to 10000 | < 100 | – |
| CNC(=O)c1cccc(O)c1Nc1nc(Nc2ccc3c(c2)CCN(CCOC)CC3)ncc1Cl [Example 1227, 2-{5-Chloro-2-[3-(2-methoxy-ethyl)-2,3,4,5-tetrahydro-1H-3-benzazepin-7-ylamino]-pyrimidin-4-ylamino}-3-hydroxy-N-methyl-benzamide] | – | – | 100 to 1000 | 100 to 1000 | – |
| CNC(=O)c1cccc(F)c1Nc1nc(Nc2ccc3c(c2)N(C)CCCO3)ncc1Cl [Example 1707, 2-[5-Chloro-2-(9-methyl-6,7,8,9-tetrahydro-5-oxa-9-aza-benzocyclohepten-2-ylamino)-pyrimidin-4-ylamino]-3-fluoro-N-methyl-benzamide] | – | – | – | – | IC50 [1, 5]: < 100 nM; IC50 [2, 6]: < 100 nM |
| CS(=O)(=O)N[C@@H]1CCCC[C@H]1Nc1nc(Nc2ccc3c(c2)CCN(C[C@H](O)C(F)(F)F)CC3)ncc1Cl [Example 329, N-((1R,2R)-2-{5-Chloro-2-[3-((S)-3,3,3-trifluoro-2-hydroxy-propyl)-2,3,4,5-tetrahydro-1H-benzo[d]azepin-7-ylamino]-pyrimidin-4-ylamino}-cyclohexyl)-methanesulfonamide] | 1000 to 10000 | < 100 | – | – | – |
| Cn1ccnc1-c1ccccc1Nc1nc(Nc2ccc3c(c2)CCCC(=O)N3)ncc1Cl [Example 994, 7-{5-Chloro-4-[2-(1-methyl-1H-imidazol-2-yl)-phenylamino]-pyrimidin-2-ylamino}-1,3,4,5-tetrahydro-benzo[b]azepin-2-one] | – | – | – | – | IC50 [1, 7]: > 10000 nM; IC50 [2, 8]: < 100 nM |
| CCN1CCc2ccc(Nc3ncc(Cl)c(N[C@H]4CCC[C@H]4C(N)=O)n3)cc2CC1 (relative stereo) [Example 176, Cis-2-[5-Chloro-2-(3-ethyl-2,3,4,5-tetrahydro-1H-benzo[d]-azepin-7-ylamino)-pyrimidin-4-ylamino]-cyclopentanecarboxylic acid amide] | 1000 to 10000 | 100 to 1000 | – | – | – |

Now from value to compound, other results behind:

| IC50 [1, 3] [nM] | IC50 [2, 4] [nM] | IC50 [1, 9] [nM] | IC50 [2, 10] [nM] | Compound | also measured |
| --- | --- | --- | --- | --- | --- |
| – | – | 1000 to 10000 | 1000 to 10000 | COCCN1CCc2ccc(Nc3ncc(Cl)c(N[C@@H]4CCC[C@@H](NS(C)(=O)=O)C4)n3)cc2CC1 (relative stereo) [Example 1379, rel-N-((1R,3R)-3-{5-Chloro-2-[3-(2-methoxy-ethyl)-2,3,4,5-tetrahydro-1H-benzo[d]azepin-7-ylamino]-pyrimidin-4-ylamino}-cyclohexyl)-methanesulfonamide] | – |
| – | – | 1000 to 10000 | 100 to 1000 | COCCN1CCc2ccc(Nc3ncc(Cl)c(Nc4ccccc4C(=O)NCCN4CCN(C)CC4)n3)cc2CC1 [Example 1402, 2-{5-Chloro-2-[3-(2-methoxy-ethyl)-2,3,4,5-tetrahydro-1H-benzo[d]azepin-7-ylamino]-pyrimidin-4-ylamino}-N-[2-(4-methyl-piperazin-1-yl)-ethyl]-benzamide] | – |
| – | – | 100 to 1000 | < 100 | COCCN1CCc2ccc(Nc3ncc(Cl)c(Nc4ccccc4OCC(=O)O)n3)cc2CC1 [Example 1242, (2-{5-Chloro-2-[3-(2-methoxy-ethyl)-2,3,4,5-tetrahydro-1H-3-benzazepin-7-ylamino]-pyrimidin-4-ylamino}-phenoxy)-acetic acid] | – |
| – | – | 100 to 1000 | < 100 | COc1cc(N2CCOCC2)ccc1Nc1nc(Nc2ccc3c(c2)NC(=O)CCC3(C)C)ncc1Cl [Example 1234, 8-[5-Chloro-4-(2-methoxy-4-morpholin-4-yl-phenylamino)-pyrimidin-2-ylamino]-5,5-dimethyl-1,3,4,5-tetrahydro-1-benzazepin-2-one] | – |
| – | – | 100 to 1000 | 100 to 1000 | C#CCNC(=O)c1cccc(F)c1Nc1nc(Nc2ccc3c(c2)OCCCN3C(=O)OCCCN(C)C)ncc1Cl [Example 1427, 3-[5-Chloro-4-(2-fluoro-6-prop-2-ynylcarbamoyl-phenylamino)-pyrimidin-2-ylamino]-7,8-dihydro-6H-5-oxa-9-aza-benzocycloheptene-9-carboxylic acid 3-dimethylamino-propyl ester] | – |
